In PMC6525040 (ChemMedChem, 2019):

What was measured:
[1] = target: T1, Human RAD51 protein binding to ssDNA (Homo sapiens, UniProt Q06609); assay: RAD51-DNA binding assay; conditions: gel shift, 0.5 μM RAD51
T1 sequence (Q06609 1-339): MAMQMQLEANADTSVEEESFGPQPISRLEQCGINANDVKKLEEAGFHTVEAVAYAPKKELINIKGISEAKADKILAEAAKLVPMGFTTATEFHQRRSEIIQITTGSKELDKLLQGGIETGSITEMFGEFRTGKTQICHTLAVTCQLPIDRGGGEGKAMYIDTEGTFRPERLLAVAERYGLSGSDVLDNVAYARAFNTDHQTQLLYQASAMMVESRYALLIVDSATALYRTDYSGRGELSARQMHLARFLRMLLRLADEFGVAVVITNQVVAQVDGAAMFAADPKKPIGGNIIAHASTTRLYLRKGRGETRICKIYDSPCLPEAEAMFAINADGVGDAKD

[2] = test system: relaxed covalently-closed circular dsDNA plasmid (pRS306); assay: dsDNA intercalation assay; format: binding; conditions: 10 μM; DMSO vehicle defined as 0, saturation of the endpoint = 1

effect on RAD51 binding to ssDNA / RAD51-ssDNA nucleoprotein filaments (in words) [1]	SMILES	intercalation score [2]
inhibited	O=C1C(Cl)=C(N2CCOCC2)C(=O)N1c1ccc(Cl)c(Cl)c1 [RI-1]	
	CCN(CC)CCCC(C)Nc1ccnc2cc(Cl)ccc12 (centres unmarked) [chloroquine]	1
